As a reminder, the IC50 is the point on the concentration scale where inhibition reaches its midpoint. Read a high IC50 as weaker potency in that assay. What is called EC50 is the concentration needed to bring the measured effect to its halfway point.

This is an account of results in patent publication US9284296B2, “Bipyridine sulfonamide derivatives for the treatment of neurodegenerative diseases or conditions” (AUBERGINE PHARMACEUTICALS LLC, priority 2010, dated 2016).

The first assay concerns secretion of amyloid peptide β1-40 (Aβ1-40). The assay can be described thus: Inhibition of β-amyloid secretion (CHO7w cells stably transfected with human APP, ELISA). The following applies: CHO-7W, 24 h incubation, range stated for the listed compounds together. Format: cell-based. As to the method: The inhibition caused by the compounds on the secretion of amyloid peptide β1-40 (Aβ1-40) was determined by measuring the levels of this peptide in cell supernatants after incubating the cells with several concentrations of the tested compound. A CHO7w cell line, stably transfected with human amyloid precursor protein (APP), was used. Cells were dispensed in 96-well culture plates (5,000 cells/well) and grown in DMEM supplemented with 2% (v/v) foetal bovine serum, 100 U/ml penicillin, 100 μg/ml streptomycin, 2 mM L-glutamine and 200 μg/ml G418 in the presence of several concentrations of the tested compound which had been previously dissolved in DMSO (1% (v/v) DMSO final concentration). After a 24 h incubation the amount of Aβ1-40 secreted to the medium was measured with an ELISA-based commercial kit (Human Amyloid β-40 ELISA High Sensitivity Kit, Millipore, Billerica, Mass., USA) using absorbance at 450 nm as the final readout. In the culture plate several wells were included as a control for lack of Aβ1-40 secretion, in these wells the cells were incubated in the presence of 16% (v/v) DMSO to inhibit cell growth therefore abolishing Aβ1-40 secretion. Likewise, several wells were also included as a control for full Aβ1-40 secretion, in these wells the cells were grown in the presence of 1% (v/v) DMSO. The absorbance of each tested sample was normalized to that of the control wells, so that for every compound concentration the percentage of inhibition was calculated with the following equation:
[formula] where “S” is the absorbance of the sample being considered, “E” is the average absorbance of wells lacking Aβ1-40 secretion and “B” is the average absorbance of wells with full Aβ1-40 secretion. The inhibition values obtained at every compound concentration were fitted to a 4-parameters isotherm equation, as described above, to calculate the […] (i.e., the concentration causing 50% of inhibition of Ab1-40 secretion).
`CCN(CC)CCOc1cc(CN(Cc2cc(OCCN(CC)CC)cc(-c3ccccn3)n2)S(=O)(=O)c2cccs2)nc(-c2ccccn2)c1` [Compound 29, Thiophene-2-sulfonic acid bis-[4-(2-diethylamino-ethoxy)-[2,2′]bipyridinyl-6-ylmethyl]-amide] registered an IC50 of 0.3 to 42 µM.

Regarding `COc1ccc(S(=O)(=O)NCc2cc(OC)cc(-c3ccccn3)n2)cc1` [Compound 38, 4-Methoxy-N-(4-methoxy-[2,2′]bipyridinyl-6-ylmethyl)-benzenesulfonamide], the half-maximal inhibitory concentration (IC50) lay within 0.3 to 42 µM.

As to `COc1cc(CNS(=O)(=O)c2ccccc2C#N)nc(-c2ccccn2)c1` [Compound 40], the IC50 was 0.3 to 42 µM.

In turn, `COc1cc(CNS(=O)(=O)c2ccc(-c3ccno3)s2)nc(-c2ccccn2)c1` [Compound 42] displayed an IC50 of 0.3 to 42 µM.

The compound `COc1cc(CNS(=O)(=O)c2cc(Cl)ccc2F)nc(-c2ccccn2)c1` [Compound 44] registered an IC50 of 0.3 to 42 µM.

For `COc1cc(CNS(=O)(=O)c2ccc(-c3ccccn3)s2)nc(-c2ccccn2)c1` [Compound 46], the concentration for half-maximal inhibition (IC50) is 0.3 to 42 µM.

The compound `COc1cc(CNS(=O)(=O)c2sc(Cl)nc2C)nc(-c2ccccn2)c1` [Compound 47] yielded an IC50 of 0.3 to 42 µM.

With `COC(=O)c1ccc(S(=O)(=O)NCc2cc(OC)cc(-c3ccccn3)n2)o1` [Compound 51], the half-inhibitory concentration (IC50) was in the range of 0.3 to 42 µM.

On to `COc1cc(CNS(=O)(=O)c2ccc(CNC(C)=O)s2)nc(-c2ccccn2)c1` [Compound 52], for which the IC50 lay in the range of 0.3 to 42 µM.

As for `COc1cc(CNS(=O)(=O)c2cc(C(F)(F)F)ccc2F)nc(-c2ccccn2)c1` [Compound 66], the IC50 lay in the range of 0.3 to 42 µM.

Turning to `COc1cc(CNS(=O)(=O)c2cc3ccccc3s2)nc(-c2ccccn2)c1` [Compound 73], the IC50 is 0.3 to 42 µM.

In the case of `COc1cc(CNS(=O)(=O)c2ccc([N+](=O)[O-])cc2)nc(-c2ccccn2)c1` [Compound 74], the IC50 is 0.3 to 42 µM.

In the case of `COc1cc(CNS(=O)(=O)c2c(C)cc(C)cc2C)nc(-c2ccccn2)c1` [Compound 75], the 50% inhibitory concentration (IC50) lay within 0.3 to 42 µM.

The compound `COc1cc(CNS(=O)(=O)c2c(C)cccc2Cl)nc(-c2ccccn2)c1` [Compound 84] gave a concentration for half-maximal inhibition (IC50) of 0.3 to 42 µM.

For the compound `COc1cc(CNS(=O)(=O)c2c(F)cc(OC)cc2F)nc(-c2ccccn2)c1` [Compound 85], the half-maximal inhibitory concentration (IC50) was 0.3 to 42 µM.

Compound `COc1cc(CNS(=O)(=O)CCC(F)(F)F)nc(-c2ccccn2)c1` [Compound 86] gave a half-inhibitory concentration (IC50) of 0.3 to 42 µM.

In the case of `COc1cc(CNS(=O)(=O)c2ccc3c(c2)OCCO3)nc(-c2ccccn2)c1` [Compound 87], the half-inhibitory concentration (IC50) lay in the range of 0.3 to 42 µM.

For the compound `COc1cc(CNS(=O)(=O)c2ccc(C(C)(C)C)cc2)nc(-c2ccccn2)c1` [Compound 88], the IC50 was 0.3 to 42 µM.

Compound `COc1cc(CNS(=O)(=O)c2ccc(-c3ccccc3)cc2)nc(-c2ccccn2)c1` [Compound 89] gave an IC50 of 0.3 to 42 µM.

In turn, `COc1cc(CNS(=O)(=O)c2c(Cl)cccc2Cl)nc(-c2ccccn2)c1` [Compound 97] registered an IC50 of 0.3 to 42 µM.

With `COc1cc(CNS(=O)(=O)c2ccc(C(F)(F)F)cc2[N+](=O)[O-])nc(-c2ccccn2)c1` [Compound 102], the IC50 was 0.3 to 42 µM.

Regarding `COc1cc(CNS(=O)(=O)c2cnc(Cl)nc2)nc(-c2ccccn2)c1` [Compound 107], the 50% inhibitory concentration (IC50) was 0.3 to 42 µM.

For another assay, the system named is SH-SY5Y human neuroblastoma cells. Nature of the assay: Protection against hydrogen peroxide-induced cell death. Format: cell-based. The following applies: Homo sapiens; SH-SY5Y cells, 1 h preincubation, 100 μM hydrogen peroxide, 24 h, LDH readout of live cells. As to the method:
The aim of this assay is to determine the neuroprotective effect of the compounds when human neuroblastoma cells are exposed to the oxidative stress induced by hydrogen peroxide, which leads to cell death. Therefore the protective effect of the compounds was measured by monitoring cell survival using a suitable commercial kit (Cytotoxicity Detection Kit, Roche Diagnostics GmbH, Mannheim, Germany) based on the quantification of the lactate dehydrogenase activity obtained from lysates of the remaining live cells with a colorimetric assay yielding absorbance at 492 nm as the final readout.
SH-SY5Y human neuroblastoma cells were seeded into 96-well culture plate at a density of 10,000 cells/well. Cells were preincubated for one hour with different concentrations of the compound at a 1% (v/v) DMSO concentration in an equivolumetric mixture of Minimum Essential Medium (MEM) and Nutrient Mixture HAM F12 supplemented with 10% foetal bovine serum, 100 U/ml penicillin, 100 μg/ml streptomycin, 1 mM each of non-essential aminoacids (commercial preparation from GIBCO, Paisley, UK) and 2 mM L-glutamine. Hydrogen peroxide was then added to reach 100 μM and the incubation was extended for 24 h. Then the medium was removed and live cells, which remained attached to the bottom of the plate, were lysed by incubating them during 5 min with 50 μl of 1% (v/v) Triton X-100 in Krebs-Hepes buffer (10 mM Hepes pH7.3 with 145 mM NaCl, 5.5 mM KCl, 1 mM MgCl2, 2 mM CaCl2 and 1 mM glucose). This lysate was used to measure LDH activity using the commercial kit according to the manufacturer's instructions. In the culture plate several wells were included as a control of cell death, in these wells the cells were preincubated with 1% (v/v) DMSO before hydrogen peroxide addition. Likewise, several wells were included as control for full cell survival, in these wells the addition of H2O2 was omitted. The absorbance of each tested sample was normalized to that of the control wells, so that for every compound concentration the percentage of protective effect was calculated with the following equation:
[formula] where “S” is the absorbance of the sample being considered, “E” is the average absorbance of wells used as control of full cell survival and “B” is the average absorbance of wells used as control of cell death. The values obtained at every compound concentration were finally used to calculate the EC50 (i.e., the concentration causing 50% of protective effect) of the tested compound. For that purpose the data were fitted to a classical 4-parameters isotherm equation using the nonlinear regression function of GraphPad™ Prism 5.0 (GraphPad Software Inc.), such equation is described below:
[formula] where “L” is the lower asymptote of the theoretical sigmoidal curve, “H” is the higher asymptote, “C” is the concentration of compound and “n” is the Hill coefficient.
Turning to `COc1cc(CNS(=O)(=O)c2cc(OC)ccc2OC)nc(-c2ccccn2)c1` [Compound 1, 2,5-Dimethoxy-N-(4-methoxy-[2,2′]bipyridinyl-6-ylmethyl)-benzenesulfonamide], the EC50 amounted to 36 µM.

On to `COc1cc(CNS(=O)(=O)c2ccc(C)cc2)nc(-c2ccccn2)c1` [Compound 3, N-(4-Methoxy-[2,2′]bipyridinyl-6-ylmethyl)-4-methyl-benzenesulfonamide], for which the response was half-maximal at 23 µM (EC50).

For the compound `COc1cc(CNS(C)(=O)=O)nc(-c2ccccn2)c1` [Compound 5, N-(4-Methoxy-[2,2′]bipyridinyl-6-ylmethyl)-methanesulfonamide], a half-maximal effect (EC50) was put at 39.8 µM.

As for `COc1cc(CNS(=O)(=O)C2CCCCC2)nc(-c2ccccn2)c1` [Compound 7, Cyclohexanesulfonic acid (4-methoxy-[2,2′]bipyridinyl-6-ylmethyl)-amide], a half-maximal response (EC50) required 11.2 µM.

In turn, `COc1cc(CNS(=O)(=O)c2ccc3ccccc3c2)nc(-c2ccccn2)c1` [Compound 15, Naphthalene-2-sulfonic acid (4-methoxy-[2,2′]bipyridinyl-6-ylmethyl)-amide] registered an EC50 of 4.8 µM.

`COc1cc(CNS(=O)(=O)C(F)(F)F)nc(-c2ccccn2)c1` [Compound 17, C,C,C-Trifluoro-N-(4-methoxy-[2,2′]bipyridinyl-6-ylmethyl)-methanesulfonamide] registered a half-maximal effective concentration (EC50) of 0.82 µM.

As for `COc1cc(CNS(=O)(=O)N2CCOCC2)nc(-c2ccccn2)c1` [Compound 20, Morpholine-4-sulfonic acid (4-methoxy-[2,2′]bipyridinyl-6-ylmethyl)-amide], a half-maximal response (EC50) required 5.1 µM.

Compound `COc1cc(CNS(=O)(=O)c2cccnc2)nc(-c2ccccn2)c1` [Compound 21, Pyridine-3-sulfonic acid (4-methoxy-[2,2′]bipyridinyl-6-ylmethyl)-amide] came in with an EC50 of 5.19 µM.

Regarding `COc1cc(CNS(=O)(=O)c2ccc(S(C)(=O)=O)cc2)nc(-c2ccccn2)c1` [Compound 22, 4-Methanesulfonyl-N-(4-methoxy-[2,2′]bipyridinyl-6-ylmethyl)-benzenesulfonamide], the concentration giving a half-maximal response (EC50) stood at 0.88 µM.

For the compound `COc1cc(CNS(=O)(=O)Cc2ccc(C(F)(F)F)cc2)nc(-c2ccccn2)c1` [Compound 23, N-(4-Methoxy-[2,2′]bipyridinyl-6-ylmethyl)-C-(4-trifluoromethyl-phenyl)-methanesulfonamide], the EC50 was 2.91 µM.

Compound `COc1cc(CN(Cc2cc(OC)cc(-c3ccccn3)n2)S(=O)(=O)c2cccs2)nc(-c2ccccn2)c1` [Compound 25] gave an EC50 of 4.95 µM.

`COc1cc(CNS(=O)(=O)c2c(C)noc2C)nc(-c2ccccn2)c1` [Compound 54] came in with a 50% effective concentration (EC50) of 23.1 µM.

For `COc1cc(CNS(=O)(=O)c2ccc(Cl)cc2F)nc(-c2ccccn2)c1` [Compound 57], the EC50 is 1.5 µM.

`COc1cc(CNS(=O)(=O)c2c(F)cccc2F)nc(-c2ccccn2)c1` [Compound 58] gave an EC50 of 1.6 µM.

Regarding `COc1cc(CNS(=O)(=O)c2cc(F)ccc2F)nc(-c2ccccn2)c1` [Compound 59], it took 4.8 µM to reach a half-maximal effect (EC50).

On to `COc1cc(CNS(=O)(=O)c2cccc3cccnc23)nc(-c2ccccn2)c1` [Compound 60], for which the EC50 was 3.2 µM.

`COc1cc(CNS(=O)(=O)c2cccc3scnc23)nc(-c2ccccn2)c1` [Compound 61]: a half-maximal effect (EC50) was put at 0.82 µM.

`COc1cc(CNS(=O)(=O)c2cc3ccccc3o2)nc(-c2ccccn2)c1` [Compound 62] returned a 50% effective concentration (EC50) of 1.88 µM.

For `COc1cc(CNS(=O)(=O)c2ccc(-c3cc(C)no3)o2)nc(-c2ccccn2)c1` [Compound 79], a half-maximal effect (EC50) was put at 0.72 µM.

Regarding `COc1cc(CNS(=O)(=O)c2cccc(Cl)c2Cl)nc(-c2ccccn2)c1` [Compound 95], the concentration giving a half-maximal response (EC50) was 1.09 µM.
